Measured values published in ChEMBL document CHEMBL5113383, “Application of the All-Hydrocarbon Stapling Technique in the Design of Membrane-Active Peptides” (J Med Chem, 2022).
Values after ≈ are worked out from the molar mass of the structure shown. Positions of bridges follow the written chain, without caps; N, C: chain ends. Non-standard residues stand in square brackets, D forms with d. Residues, ends and D or L forms follow the SMILES beside them. *: point of attachment. X2 = C[C@@H]1O[C@H](*)[C@@H](O)[C@H](O)[C@@H]1O; X1 = O[C@H]1[C@H](O)[C@@H](*)OC[C@H]1O; R8 = C=CCCCCCC[C@@](C)(N)C(=O)O; R5 = C=CCCC[C@@](C)(N)C(=O)O; S5 = C=CCCC[C@](C)(N)C(=O)O; Nle = CCCC[C@H](N)C(=O)O; Orn = NCCC[C@H](N)C(=O)O

Assays:
Candida tropicalis [1] = assay: Antimicrobial activity against Candida tropicalis 895; format: functional
Nakaseomyces glabratus [2] = assay: Antimicrobial activity against Candida glabrata 896; format: functional
Candida albicans [3] = assay: Antimicrobial activity against Candida albicans 904; format: functional
Candida parapsilosis = assay: Antimicrobial activity against Candida parapsilosis ATCC 22010; format: functional; settings: Lodderomyces parapsilosis
Candida albicans [4] = assay: Antimicrobial activity against Candida albicans SC5314; format: functional
Nakaseomyces glabratus [5] = assay: Antimicrobial activity against Candida glabrata ATCC 1182; format: functional
[Candida] auris [6] = Antimicrobial activity against Candida auris 918; format: functional; settings: Candidozyma auris
Pichia kudriavzevii = assay: Antimicrobial activity against Candida krusei ATCC 2340; format: functional
[Candida] auris [7] = Antimicrobial activity against Candida auris 919; format: functional; settings: Candidozyma auris
Candida tropicalis [8] = assay: Antimicrobial activity against Candida tropicalis ATCC 20026; format: functional
Candida albicans [9] = assay: Antimicrobial activity against Candida albicans 901; format: functional
[10] = Hemolytic activity in human erythrocytes incubated for 1 hr; format: toxicity, cell-based, Erythrocyte; settings: for hemolysis at 1 h: read-out: Activity

Molecule | HC50 at 1 h [10] [µM] | other results
CC[C@H](C)[C@H](NC(=O)[C@H](CC(=O)O)NC(=O)[C@H](Cc1ccccc1)NC(=O)[C@H](CC(C)C)NC(=O)CNC(C)=O)C(=O)N[C@H](C(=O)N[C@@H](CCCCN)C(=O)N[C@@H](CCCCN)C(=O)N[C@@]1(C)CCC/C=C\CCC[C@@](C)(C(N)=O)NC(=O)[C@H](CO)NC(=O)[C@H](CCC(=O)O)NC(=O)[C@H](C)NC1=O)[C@@H](C)CC (Ac-GLFDIIKK[S5]AES[S5]-NH2; staple (Z) 9-13) |  | MIC (Candida tropicalis [1]): 32 µg/mL (≈ 21.2 µM); MIC (Nakaseomyces glabratus [2]): > 128 µg/mL; MIC (Candida albicans [3]): > 128 µg/mL; MIC (Candida parapsilosis): > 128 µg/mL; MIC (Candida albicans [4]): > 64 µg/mL; MIC (Nakaseomyces glabratus [5]): > 128 µg/mL; MIC ([Candida] auris [6]): > 128 µg/mL; MIC (Pichia kudriavzevii): > 128 µg/mL; MIC ([Candida] auris [7]): > 128 µg/mL; MIC (Candida tropicalis [8]): > 128 µg/mL; MIC (Candida albicans [9]): > 128 µg/mL
CCCC[C@H](NC(=O)[C@H](Cc1cnc[nH]1)NC(=O)[C@H](C)NC(=O)[C@H](CCCC)NC(=O)[C@@H](NC(=O)[C@H](CCCCN)NC(=O)[C@@H]1CCCN1C(=O)[C@H](CC(C)C)NC(=O)[C@@H](NC(=O)[C@H](CCCCN)NC(=O)[C@H](CCCCN)NC(=O)[C@H](CC(C)C)NC(=O)[C@@H](NC(=O)[C@H](CO)NC(=O)[C@H](CC(C)C)NC(=O)[C@H](Cc1ccccc1)NC(=O)CN)[C@@H](C)CC)C(C)C)C(C)C)C(=O)N[C@@H](CCCCN)C(N)=O (H-GFLSILKKVLPKV[Nle]AH[Nle]K-NH2) | 50 | 
CCCC[C@@H]1NC(=O)[C@@](C)(NC(=O)[C@H](CCCCN)NC(=O)[C@@H]2CCCN2C(=O)[C@H](CC(C)C)NC(=O)[C@@H](NC(=O)[C@H](CCCCN)NC(=O)[C@H](CCCCN)NC(=O)[C@H](CC(C)C)NC(=O)[C@@H](NC(=O)[C@H](CO)NC(=O)[C@H](CC(C)C)NC(=O)[C@H](Cc2ccccc2)NC(=O)CN)[C@@H](C)CC)C(C)C)CCC/C=C\CCC[C@@](C)(C(=O)N[C@@H](CCCCN)C(N)=O)NC(=O)[C@H](Cc2cnc[nH]2)NC(=O)[C@H](C)NC1=O (H-GFLSILKKVLPK[S5][Nle]AH[S5]K-NH2; staple (Z) 13-17) | 18.1 | 
CCCC[C@H](NC(=O)[C@H](Cc1cnc[nH]1)NC(=O)[C@H](C)NC(=O)[C@H](CCCC)NC(=O)[C@@H](NC(=O)[C@H](CCCCN)NC(=O)[C@@H]1CCCN1C(=O)[C@H](CC(C)C)NC(=O)[C@@]1(C)CCC/C=C\CCC[C@](C)(NC(=O)[C@H](CO)NC(=O)[C@H](CC(C)C)NC(=O)[C@H](Cc2ccccc2)NC(=O)CN)C(=O)N[C@@H](CC(C)C)C(=O)N[C@@H](CCCCN)C(=O)N[C@@H](CCCCN)C(=O)N1)C(C)C)C(=O)N[C@@H](CCCCN)C(N)=O (H-GFLS[S5]LKK[R5]LPKV[Nle]AH[Nle]K-NH2; staple (Z) 5-9) | 14.7 | 
CCCC[C@@H]1NC(=O)[C@@](C)(NC(=O)[C@H](CCCCN)NC(=O)[C@@H]2CCCN2C(=O)[C@H](CC(C)C)NC(=O)[C@]2(C)CCC/C=C\CCC[C@](C)(NC(=O)[C@H](CO)NC(=O)[C@H](CC(C)C)NC(=O)[C@H](Cc3ccccc3)NC(=O)CN)C(=O)N[C@@H](CC(C)C)C(=O)N[C@@H](CCCN)C(=O)N[C@@H](CCCCN)C(=O)N2)CCC/C=C\CCC[C@@](C)(C(=O)N[C@@H](CCCCN)C(N)=O)NC(=O)[C@H](Cc2cnc[nH]2)NC(=O)[C@H](C)NC1=O (H-GFLS[S5]L[Orn]K[S5]LPK[S5][Nle]AH[S5]K-NH2; staple (Z) 5-9, 13-17) | 13.9 | 
CCCC[C@H](NC(=O)[C@H](Cc1cnc[nH]1)NC(=O)[C@H](C)NC(=O)[C@H](CCCC)NC(=O)[C@@H](NC(=O)[C@H](CCCCN)NC(=O)[C@@H]1CCCN1C(=O)[C@]1(C)CCC/C=C/CCCCCC[C@@](C)(NC(=O)[C@H](Cc2ccccc2)NC(=O)CN)C(=O)N[C@@H](CO)C(=O)N[C@@H]([C@@H](C)CC)C(=O)N[C@@H](CC(C)C)C(=O)N[C@@H](CCCCN)C(=O)N[C@@H](CCCCN)C(=O)N[C@@H](C(C)C)C(=O)N1)C(C)C)C(=O)N[C@@H](CCCCN)C(N)=O (H-GF[R8]SILKKV[S5]PKV[Nle]AH[Nle]K-NH2; staple (E) 3-10) | 20 | 
CCCC[C@H](NC(=O)[C@H](Cc1cnc[nH]1)NC(=O)[C@H](C)NC(=O)[C@H](CCCC)NC(=O)[C@@H](NC(=O)[C@H](CCCCN)NC(=O)[C@@H]1CCCN1C(=O)[C@]1(C)CCC/C=C\CCCCCC[C@@](C)(NC(=O)[C@H](Cc2ccccc2)NC(=O)CN)C(=O)N[C@@H](CO)C(=O)N[C@@H]([C@@H](C)CC)C(=O)N[C@@H](CC(C)C)C(=O)N[C@@H](CCCCN)C(=O)N[C@@H](CCCCN)C(=O)N[C@@H](C(C)C)C(=O)N1)C(C)C)C(=O)N[C@@H](CCCCN)C(N)=O (H-GF[R8]SILKKV[S5]PKV[Nle]AH[Nle]K-NH2; staple (Z) 3-10) | 11 | 
CC[C@H](C)[C@H](NC(=O)CN)C(=O)NCC(=O)N[C@@H](CCCCN)C(=O)N[C@@H](Cc1ccccc1)C(=O)N[C@@H](CC(C)C)C(=O)N[C@@H](Cc1cnc[nH]1)C(=O)N[C@@H](CO)C(=O)N[C@@H](C)C(=O)N[C@@H](CCCCN)C(=O)N[C@@H](CCCCN)C(=O)N[C@@H](Cc1ccccc1)C(=O)NCC(=O)N[C@@H](CCCCN)C(=O)N[C@@H](C)C(=O)N[C@@H](Cc1ccccc1)C(=O)N[C@H](C(=O)NCC(=O)N[C@@]1(C)CCC/C=C\CCC[C@@](C)(C(N)=O)NC(=O)[C@H](CC(N)=O)NC(=O)[C@H](CCSC)NC(=O)[C@H]([C@@H](C)CC)NC1=O)C(C)C (H-GIGKFLHSAKKFGKAFVG[S5]IMN[S5]-NH2; staple (Z) 19-23) |  | hemolysis at 1 h [10]: 100%
CC[C@H](C)[C@H](NC(=O)CN)C(=O)NCC(=O)N[C@@H](CCCCN)C(=O)N[C@@H](Cc1ccccc1)C(=O)N[C@@H](CC(C)C)C(=O)N[C@@H](Cc1cnc[nH]1)C(=O)N[C@@H](CO)C(=O)N[C@@H](C)C(=O)N[C@@H](CCCCN)C(=O)N[C@@H](CCCCN)C(=O)N[C@@H](Cc1ccccc1)C(=O)NCC(=O)N[C@@H](CCCCN)C(=O)N[C@@H](C)C(=O)N[C@@H](Cc1ccccc1)C(=O)N[C@@]1(C)CCC/C=C\CCC[C@@](C)(C(=O)N[C@@H](CC(N)=O)C(=O)N[C@@H](CO)C(N)=O)NC(=O)[C@H]([C@@H](C)CC)NC(=O)[C@H](CCC(=O)O)NC(=O)CNC1=O (H-GIGKFLHSAKKFGKAF[S5]GEI[S5]NS-NH2; staple (Z) 17-21) |  | hemolysis at 1 h [10]: < 10%
CC[C@H](C)[C@H](NC(=O)CN)C(=O)N[C@@H](CCSC)C(=O)N[C@@H](CO[C@H]1OC[C@@H](O)[C@@H](O)[C@@H]1O)C(=O)N[C@@H](CO)C(=O)N[C@@H](CC(C)C)C(=O)N[C@@H](CCSC)C(=O)N[C@@H](CCCCN)C(=O)N[C@@H](CCCCN)C(=O)N[C@@H](CC(C)C)C(=O)N[C@@]1(C)CCC/C=C\CCC[C@@](C)(C(=O)N[C@@H](CCCCN)C(N)=O)NC(=O)[C@H]([C@@H](C)CC)NC(=O)[C@H](Cc2cnc[nH]2)NC(=O)[C@H](C)NC1=O (H-GIMS(X1)SLMKKL[S5]AHI[S5]K-NH2; staple (Z) 11-15) | > 400 | 
CC[C@H](C)[C@H](NC(=O)CN)C(=O)N[C@@H](CCSC)C(=O)N[C@@H](CO[C@H]1O[C@@H](C)[C@@H](O)[C@@H](O)[C@@H]1O)C(=O)N[C@@H](CO)C(=O)N[C@@H](CC(C)C)C(=O)N[C@@H](CCSC)C(=O)N[C@@H](CCCCN)C(=O)N[C@@H](CCCCN)C(=O)N[C@@H](CC(C)C)C(=O)N[C@@]1(C)CCC/C=C\CCC[C@@](C)(C(=O)N[C@@H](CCCCN)C(N)=O)NC(=O)[C@H]([C@@H](C)CC)NC(=O)[C@H](Cc2cnc[nH]2)NC(=O)[C@H](C)NC1=O (H-GIMS(X2)SLMKKL[S5]AHI[S5]K-NH2; staple (Z) 11-15) | > 400 | 
CC[C@H](C)[C@H](NC(=O)[C@H](CCCCN)NC(=O)[C@H](CCCCN)NC(=O)[C@H](Cc1c[nH]c2ccccc12)NC(=O)[C@H](CC(N)=O)NC(=O)[C@@H](N)C(C)C)C(=O)N[C@@H](CC(C)C)C(=O)NCC(=O)N[C@@H](CCCCN)C(=O)N[C@@]1(C)CCC/C=C\CCC[C@@](C)(C(=O)N[C@@H](CCCCN)C(N)=O)NC(=O)[C@H](C(C)C)NC(=O)[C@H](CCCCN)NC(=O)[C@H]([C@@H](C)CC)NC1=O (H-VNWKKILGK[S5]IKV[S5]K-NH2; staple (Z) 10-14) | 69 | 
CC[C@H](C)[C@H](NC(=O)[C@]1(C)CCC/C=C\CCC[C@](C)(NC(=O)[C@H](CCCCN)NC(=O)[C@H](CCCCN)NC(=O)[C@H](Cc2c[nH]c3ccccc23)NC(=O)[C@H](CC(N)=O)NC(=O)[C@@H](N)C(C)C)C(=O)N[C@@H](CC(C)C)C(=O)NCC(=O)N[C@@H](CCCCN)C(=O)N1)C(=O)N[C@@H](CCCCN)C(=O)N[C@H](C(=O)N[C@H](C(=O)N[C@@H](CCCCN)C(N)=O)C(C)C)C(C)C (H-VNWKK[S5]LGK[S5]IKVVK-NH2; staple (Z) 6-10) | 31.3 | 
CC[C@H](C)[C@@H]1NC(=O)[C@H](CCCCN)NC(=O)[C@H](CCCCN)NC(=O)[C@](C)(NC(=O)[C@H](CC(N)=O)NC(=O)[C@@H](N)C(C)C)CCCCCC/C=C/CCC[C@@](C)(C(=O)N[C@H](C(=O)N[C@@H](CCCCN)C(=O)N[C@H](C(=O)N[C@H](C(=O)N[C@@H](CCCCN)C(N)=O)C(C)C)C(C)C)[C@@H](C)CC)NC(=O)[C@H](CCCCN)NC(=O)CNC(=O)[C@H](CC(C)C)NC1=O (H-VN[R8]KKILGK[S5]IKVVK-NH2; staple (E) 3-10) | > 100 | 
CC[C@H](C)[C@@H]1NC(=O)[C@H](CCCCN)NC(=O)[C@H](CCCCN)NC(=O)[C@](C)(NC(=O)[C@H](CC(N)=O)NC(=O)[C@@H](N)C(C)C)CCCCCC/C=C\CCC[C@@](C)(C(=O)N[C@H](C(=O)N[C@@H](CCCCN)C(=O)N[C@H](C(=O)N[C@H](C(=O)N[C@@H](CCCCN)C(N)=O)C(C)C)C(C)C)[C@@H](C)CC)NC(=O)[C@H](CCCCN)NC(=O)CNC(=O)[C@H](CC(C)C)NC1=O (H-VN[R8]KKILGK[S5]IKVVK-NH2; staple (Z) 3-10) | 100 | 
CC[C@H](C)[C@H](NC(=O)[C@H](CCCCN)NC(=O)CNC(=O)[C@H](CC(C)C)NC(=O)[C@]1(C)CCC/C=C\CCC[C@](C)(NC(=O)[C@@H](N)C(C)C)C(=O)N[C@@H](Cc2c[nH]c3ccccc23)C(=O)N[C@@H](CCCCN)C(=O)N[C@@H](CCCCN)C(=O)N1)C(=O)N[C@H](C(=O)N[C@@H](CCCCN)C(=O)N[C@H](C(=O)N[C@H](C(=O)N[C@@H](CCCCN)C(N)=O)C(C)C)C(C)C)[C@@H](C)CC (H-V[S5]WKK[S5]LGKIIKVVK-NH2; staple (Z) 2-6) | 30 | 
H-GIGKFLHSAKKFGKAFVGEIMNS-NH2 |  | hemolysis at 1 h [10]: < 2%
H-GIMSSLMKKLAAHIAK-NH2 | > 400 | 
